PubChem BioAssay (NCI)
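Dose response: 5 concentrations. Exposure: 48 h. Format: 96-well plates. Endpoint: linear interpolation; highest concentration if not reached. The concentration for full growth arrest is given as TGI.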

Legend:
Assay in all cases: NCI tumour cell line growth inhibition, 48 h
[1] = system: BT-549 breast
[2] = system: COLO 205 colon
[3] = system: EKVX NSCLC
[4] = system: K-562 leukemia
[5] = system: MOLT-4 leukemia
[6] = system: NCI/ADR-RES ovarian
[7] = system: OVCAR-3 ovarian
[8] = system: OVCAR-8 ovarian
[9] = system: PC-3 prostate
[10] = system: SF-295 CNS
[11] = system: SK-MEL-5 melanoma
[12] = system: UACC-62 melanoma
[13] = system: SR leukemia

SMILES | TGI [1] | TGI [2] | TGI [3] | TGI [4] | TGI [5] | TGI [6] | TGI [7] | TGI [8] | TGI [9] | TGI [10] | TGI [11] | TGI [12] | TGI [13]
OCC1OC(n2cnc3c(Cl)nc(Nc4ccccc4)nc32)CC1O (stereo not drawn) | > 100 µM | > 100 µM | 8.15 µM | > 100 µM | > 100 µM | > 100 µM | > 100 µM | > 100 µM | > 100 µM | > 100 µM | > 100 µM | > 100 µM | 
Cc1cc(C)cc(Nc2cc(=O)[nH]c(=O)[nH]2)c1 | > 100 µM | > 100 µM | > 100 µM | > 100 µM | > 100 µM | > 100 µM | > 100 µM | > 100 µM | > 100 µM | > 100 µM | > 100 µM |  | > 100 µM
CC1=NN(c2ccc(S(=O)(=O)O)cc2)C2(C1)SCC(=O)N2c1nc2ccccc2s1 (stereo not drawn) | > 100 µM | > 100 µM | > 100 µM | > 100 µM | > 100 µM | > 100 µM | > 100 µM | > 100 µM | > 100 µM | > 100 µM | > 100 µM | > 100 µM | 
COc1ccc(/C=N/N=C(\N)NO)c(O)c1 | > 10 µM | > 10 µM | > 10 µM | > 10 µM | > 10 µM | > 10 µM | > 10 µM | > 10 µM | > 10 µM | > 10 µM | > 10 µM | > 10 µM | > 10 µM
O=C1c2ccccc2-c2nc(-c3cccc([N+](=O)[O-])c3)nnc21 | 36.7 µM | 12.6 µM | 61.1 µM | > 100 µM | > 100 µM | 37 µM |  | 86.7 µM | > 100 µM | > 100 µM | 7.65 µM | 32 µM | > 100 µM
COc1ccc(Nc2nc(NS(=O)(=O)c3cc(C)c(Cl)cc3S)n[nH]2)cc1 | > 100 µM | > 100 µM | > 100 µM | > 100 µM | > 100 µM | > 100 µM | > 100 µM | > 100 µM | > 100 µM | > 100 µM | > 100 µM | > 100 µM | > 100 µM
Cc1ccc2c(=O)cc(-c3cccs3)[nH]c2n1 | > 100 µM | 25.2 µM | > 100 µM | > 100 µM | > 100 µM | 11.9 µM | > 100 µM | > 100 µM | > 95.8 µM | > 69.6 µM | > 81.9 µM | > 100 µM | > 100 µM
Nc1c(Cl)ncnc1N[C@@H]1C[C@H]1CO | > 100 µM | > 100 µM | > 100 µM | > 100 µM | > 100 µM | > 100 µM | > 100 µM | > 100 µM | > 100 µM | > 100 µM | > 100 µM | > 100 µM | > 100 µM
O=c1oc2ccccc2c(Nc2ccc3c(c2)Oc2ccccc2O3)c1[N+](=O)[O-] | 64.9 µM | > 100 µM | 67.6 µM | > 100 µM | > 100 µM | 69.4 µM | 64.2 µM | 37.6 µM | 32.5 µM | 40.5 µM | 45.3 µM | 37.1 µM | > 100 µM
